Reference: the supplement of paper PMC9103864

Assays:
[1] = tested on: BMSC (primary human bone marrow mesenchymal stromal cells); assay: drug sensitivity score (DSS); higher = more sensitive
[2] = tested on: BMSC (primary human bone marrow mesenchymal stromal cells); assay: absolute EC50 for viability; higher = less sensitive

Compound | drug sensitivity score [1] | absolute EC50 for viability [2] [µM]
Oc1ncnc2[nH]ncc12 [Allopurinol] | 0 | > 10
COCCNCc1ccc(-c2cc3nccc(Oc4ccc(NC(=O)C5(C(=O)Nc6ccc(F)cc6)CC5)cc4F)c3s2)nc1 [Sitravatinib] | 7.7 | > 2.5
CN(C)C/C=C/C(=O)Nc1cc2c(Nc3ccc(F)c(Cl)c3)ncnc2cc1O[C@H]1CCOC1 [Afatinib] | 2.9 | > 1
CCN(c1cc(-c2ccc(CN3CCOCC3)cc2)cc(C(=O)NCc2c(C)cc(C)[nH]c2=O)c1C)C1CCOCC1 [Tazemetostat] | 0 | > 10
CC(C)NC[C@@H](C(=O)N1CCN(c2ncnc3c2[C@H](C)C[C@H]3O)CC1)c1ccc(Cl)cc1 [Ipatasertib] | 4.7 | > 10
CN[C@@H]1C[C@H]2O[C@@](C)([C@@H]1OC)n1c3ccccc3c3c4c(c5c6ccccc6n2c5c31)C(=O)N[C@H]4O [UCN-01] | 13.3 | 0.643
Nc1ncnc2c1nc(N)n2[C@@H]1O[C@H](CO)[C@@H](O)[C@H]1O [8-amino-adenosine] | 21.5 | 0.803
CCCCCOC(=O)Nc1nc(=O)n([C@@H]2O[C@H](C)[C@@H](O)[C@H]2O)cc1F [Capecitabine] | 0 | > 10
C=CC[C@@H]1/C=C(\C)C[C@H](C)C[C@H](OC)[C@H]2O[C@@](O)(C(=O)C(=O)N3CCCC[C@H]3C(=O)O[C@H](/C(C)=C/[C@@H]3CC[C@@H](O)[C@H](OC)C3)[C@H](C)[C@@H](O)CC1=O)[C@H](C)C[C@@H]2OC [Tacrolimus] | 1.8 | > 10
C[C@@H](C(=O)O)c1ccc(-c2ccccc2)c(F)c1 [Tarenflurbil] | 0 | > 10
C#Cc1cccc(Nc2ncnc3cc(OCCOC)c(OCCOC)cc23)c1 [Erlotinib] | 1.5 | > 10
CO[C@@]12[C@H](COC(N)=O)C3=C(C(=O)C(C)=C(N)C3=O)N1C[C@@H]1N[C@@H]12 [Mitomycin] | 0 | > 10
CC(C)c1cc(C(=O)N2Cc3ccc(CN4CCN(C)CC4)cc3C2)c(O)cc1O [Onalespib] | 12.5 | 0.0904
Cc1cc(F)c(C(=O)Nc2cccc(-c3nncn3C(C)C)n2)cc1-n1cnc(C2CC2)c1 [Selonsertib] | 0 | > 1
c1cn2cc(-c3ccc4cn[nH]c4c3)nc(Nc3ccc(N4CCOCC4)cc3)c2n1 [Entospletinib] | 0 | > 5
CCOc1ccccc1-n1c(C(C)N2CCN(C(=O)COc3ccc(Cl)cc3)CC2)nc2ccccc2c1=O (stereo not given) [Erastin] | 2.1 | > 10
COCC1(CO)C(=O)C2CCN1CC2 (stereo not given) [APR-246] | 0 | > 10
COc1ccc(-c2nc(N3CCOCC3)c3sc(CN(C)c4ncc(C(=O)NO)cn4)cc3n2)cn1 [CUDC-907] | 24.6 | 0.0649
CCn1cc(-c2ccnc3[nH]c(-c4cccc(CN(C)C)c4)cc23)c(-c2ccc(NC(=O)N(C)C)cc2)n1 | 1.5 | > 1
O=C(c1cccc(Cl)c1F)N1CCN(Cc2cccc(Nc3nccs3)n2)CC1 [MK-8745] | 1.3 | > 10

Compound | drug sensitivity score [1] | absolute EC50 for viability [2] [µM]
c1cc(CN2CCCNCCNCCCNCC2)ccc1CN1CCCNCCNCCCNCC1 [Plerixafor] | 0 | > 10
CCN1C(=O)CNc2ncc(-c3ccc(-c4nc[nH]n4)nc3C)nc21 [CC-115] | 6.9 | 2.86
COc1cc2/c(=N/c3ccc(Br)cc3F)nc[nH]c2cc1OCC1CCN(C)CC1 [Vandetanib] | 2.5 | > 1
CCCc1cc(C)[nH]c(=O)c1CNC(=O)c1cc(-c2ccnc(N3CCN(C)CC3)c2)cc2c1cnn2C(C)C [GSK343] | 0 | > 1
C[C@H]1O[C@@H](O[C@H]2[C@@H](O)C[C@H](O[C@H]3[C@@H](O)C[C@H](O[C@H]4CC[C@@]5(C)[C@H](CC[C@@H]6[C@@H]5C[C@@H](O)[C@]5(C)[C@@H](C7=CC(=O)OC7)CC[C@]65O)C4)O[C@@H]3C)O[C@@H]2C)C[C@H](O)[C@@H]1O [Digoxin] | 13.7 | 0.0529
CCn1c(-c2nonc2N)nc2c(C#CC(C)(C)O)ncc(OC[C@H]3CCCNC3)c21 | 6.3 | > 10
Nc1ccccc1NC(=O)c1ccc(CNc2nccc(-c3cccnc3)n2)cc1 [Mocetinostat] | 4.7 | > 10
Cn1c(=O)n(-c2ccc(C(C)(C)C#N)cc2)c2c3cc(-c4cnc5ccccc5c4)ccc3ncc21 [Dactolisib] | 10.7 | 0.114
COc1ncc(-c2ccc3nccc(-c4ccnnc4)c3c2)cc1NS(=O)(=O)c1ccc(F)cc1F [Omipalisib] | 11.6 | 0.0979
N#CC[C@H](C1CCCC1)n1cc(-c2ncnc3[nH]ccc23)cn1 [Ruxolitinib] | 0.2 | > 10
Cn1cc(C2=C(c3cn(C4CCN(Cc5ccccn5)CC4)c4ccccc34)C(=O)NC2=O)c2ccccc21 [Enzastaurin] | 0 | > 10
COc1cc2c(Oc3ccc(NC(=O)C4(C(=O)Nc5ccc(F)cc5)CC4)cc3F)ccnc2cc1OCCCN1CCOCC1 [Foretinib] | 6 | 0.46
CCCC(CCC)C(=O)O [Valproic acid] | 0 | > 1000
CO[C@@H](C)Cn1c(=O)n(C)c2cnc3ccc(-c4cncc(C(C)(C)O)c4)cc3c21 | 10.5 | 0.257
Cc1cc2c(F)c(Oc3ncnn4cc(OC[C@@H](C)O)c(C)c34)ccc2[nH]1 [Brivanib] | 0 | > 1
CC(C)C[C@H](NC(=O)[C@@H](COC(C)(C)C)NC(=O)[C@H](Cc1ccc(O)cc1)NC(=O)[C@H](CO)NC(=O)[C@H](Cc1c[nH]c2ccccc12)NC(=O)[C@H](Cc1cnc[nH]1)NC(=O)[C@@H]1CCC(=O)N1)C(=O)N[C@@H](CCCNC(=N)N)C(=O)N1CCC[C@H]1C(=O)NNC(N)=O [Goserelin] | 0 | > 10
C[C@@H]1COC(Nc2ccc3ncnc(Nc4ccc(OCc5nccs5)c(Cl)c4)c3c2)=N1 [Varlitinib] | 0.4 | > 10
Cc1nc(Nc2n[nH]c3c2CN(C(=O)N[C@H](CN(C)C)c2ccccc2)C3(C)C)c2sccc2n1 | 7.4 | 2.86
COc1nc(N)nc2c1ncn2[C@@H]1O[C@H](CO)[C@@H](O)[C@@H]1O [Nelarabine] | 0 | > 10
COc1ccc(C[C@H](NC(=O)[C@H](C)NC(=O)CN2CCOCC2)C(=O)N[C@@H](Cc2ccccc2)C(=O)C2(C)CO2)cc1 (stereo in doubt) [ONX-0914] | 16.1 | 0.391
